Test results reported in patent US11549950B2, “Cryptic metabolites and method for activating silent biosynthetic gene clusters in diverse microorganisms” (The Trustees of Princeton University, priority 2017, dated 2023).

What was measured:
Test in all cases: Antibacterial bioactivity (MIC) of keratinimicins, Table 1
S. aureus MRSA = type: cell-based, Staphylococcus aureus
Protocol: (§1) To determine antibacterial and antiviral performance, assays were performed. In one example, antibacterial assays were carried out by Micromyx, LLC in accordance with methods from the Clinical and Laboratory Standards Institute. Minimal inhibitory concentrations were determined with the following strains: S. aureus ATCC 29213, S. aureus MMX 2011, S. pneumoniae ATCC 49619, S. pyogenes MMX 6253, S. agalactiae MMX 6189, E. faecalis ATCC 29212, E. faecalis MMX 486, B. subtilis ATCC 6633, E. coli ATCC 25922, K. pneumoniae MMX 214, P. aeruginosa ATCC 27853, A. baumannii ATCC 19606, V. cholerae BAA-2163, C. difficile ATCC 700057, and B. fragilis ATCC 25285.
(§2) These compounds are bioactive. In some instances, the compounds show activity against gram-positive bacteria. For example, although they may also show activity against gram-negative targets, the bioactivity of Keratinimicin B and C (FIGS. 21B and 21C) were tested against various gram-positive targets.

S. aureus MSSA = type: cell-based, Staphylococcus aureus
Protocol: as §1, §2

C. difficile = type: cell-based, Clostridium difficile
Protocol: as §1, §2

S. agalactiae = type: cell-based, Streptococcus agalactiae
Protocol: as §1, §2

S. pyogenes = type: cell-based, Streptococcus pyogenes
Protocol: as §1, §2

E. faecalis VRE = type: cell-based, Enterococcus faecalis
Protocol: as §1, §2

E. faecalis VSE = type: cell-based, Enterococcus faecalis
Protocol: as §1, §2

S. pneumoniae = type: cell-based, Streptococcus pneumoniae
Protocol: as §1, §2

Which “Bioactivity (minimal inhibitory concentration)” value (S. aureus MRSA) does the source give for `CO[C@H]1[C@H](C)O[C@@H](O[C@@H]2c3ccc(c(Cl)c3)Oc3cc4cc(c3O[C@@H]3O[C@H](CO)[C@@H](O)[C@H](O)[C@H]3O[C@H]3C[C@H](N)[C@@H](O)C(C)O3)Oc3ccc(cc3)[C@@H](O)[C@@H](NC(=O)[C@H](N)c3ccc(O)c(Cl)c3)C(=O)N[C@@H](Cc3ccccc3)C(=O)N[C@H]4C(=O)N[C@H]3C(=O)N[C@@H]2C(=O)N[C@H](C(=O)O)c2cc(O)cc(O)c2-c2cc3ccc2O)C[C@@H]1N` (some centres unmarked) [Keratinimicin B] here?
Its value is 4 µg/mL.

And the “Bioactivity (minimal inhibitory concentration)” value (S. aureus MSSA)?
The value was 8 µg/mL.

What about the “Bioactivity (minimal inhibitory concentration)” value (C. difficile) of the same compound?
Its value is 0.5 µg/mL.

What about the “Bioactivity (minimal inhibitory concentration)” value (S. agalactiae) of the same compound?
The value was 1 µg/mL.

What about the “Bioactivity (minimal inhibitory concentration)” value (S. pyogenes) of the same compound?
The value was 0.5 µg/mL.

What about the “Bioactivity (minimal inhibitory concentration)” value (E. faecalis VRE) of the same compound?
Its value is over 64 µg/mL.

And the “Bioactivity (minimal inhibitory concentration)” value (E. faecalis VSE)?
The value was 4 µg/mL.

And the “Bioactivity (minimal inhibitory concentration)” value (S. pneumoniae)?
Its value is 0.25 µg/mL.
